Series [1] in a line: in vitro. Particulars: LC50 (cytotoxicity).
Description: The MTT assay was used to determine the cytotoxicity of dried acetone extracts of H. caffrum (leaves); P. obliquum (leaves); R. melanophloeos (leaves) and S. birrea (stem bark) reconstituted in dimethyl sulphoxide (DMSO) against Mouse fibroblast cells (obtained from the Department of Plant Science, Faculty of Natural and Agricultural Sciences, University of Pretoria, South Africa).
MTT (yellow) is reduced into a formazan (purple) by viable cells. The colour intensity of the formazan produced, which is directly proportional to the number of viable cells, is measured using a spectrophotometer (Mosmann, 1983; Shai, 2007).
Cells were maintained in minimal essential medium (MEM) (Highveld Biological, South Africa) supplemented with 0.1% gentamicin (Virbac) and 5% foetal calf serum (Adcock-lngram). […] Dried crude plant extracts (100 mg) were reconstituted in 1 ml of DMSO and serial 10-fold dilutions of each extract were prepared in growth medium. The growth medium on sub-confluent monolayer cells grown overnight in microtitre plates was removed and cells were exposed to 200 μl of the extracts at different concentrations and incubated again at 37° C. for 5 days. Viability of cells was determined using the tetrazolium-based colorimetric assay (MTT assay) described by Mossmann (1983). Before the addition of MTT, the extract-containing medium on the cells was replaced with fresh culture medium to exclude reduction of the tetrazolium compound by plant extracts. The assay is based on mitochondrial dehydrogenase activity which is assessed by the reductive cleavage of the tetrazolium salt MTT [3-(4.5-dimethylthiazolyl)2.5-diphenyltetrazolium bromide] due to the succinic dehydrogenase present in living cells to yield a purple formazan dye. The cells were incubated with 30 μl of 5 mg/ml MTT in phosphate-buffered saline (PBS) for four hours. Thereafter, medium was removed and cells washed with PBS. DMSO (50 μl) was added to the cells and absorbance was measured using a Versamax microplate reader at 570 nm. Berberine chloride (Sigma) was used as a positive control, wells containing only cells acted as the negative control and a solvent control was also included. The percentage cell viability following the addition of varying concentrations of the extracts in relation to controls was calculated. The LC50 values were calculated (using SoftMax Pro4.8 Software) as the concentration of plant extracts resulting in 50 percent reduction of absorbance compared to untreated cells. Tests were carried out in quadruplicate and each experiment was repeated three times.
The subject of series [2] is Candida albicans standard strain (ATCC 10231) and clinical isolates. Kind of series: Broth micro-dilution assay, minimal inhibitory concentration (MIC). It counts as cell-based.
Series [3] has the same test system. Nature of the series: Minimal fungicidal concentration (MFC) assay. It counts as cell-based. As to conditions: for Subcidal concentration: concentration slightly below the MFC; for MFC: mean value. On the procedure:
Minimal Fungicidal Concentration Determination
The minimal fungicidal concentration (MFC) values were determined as the lowest concentration of the extract that inhibited 100 percent growth of C. albicans standard strain (ATCC 10231) and clinical isolates.
Minimal Fungicidal Concentration Assay
The assay was initiated by pouring fresh sterile water aliquots (100 μl) into the wells of a microtitre plate. […] 50 μl of a 0.2 mg/ml aqueous solution of INT (Sigma) was added to each well. These suspensions were re-incubated at 35° C. for 24 h.

The subject of series [4] is adhesion of C. albicans to human buccal epithelial cells. Nature of the series: Adhesion assay of C. albicans to human buccal epithelial cells (HBEC). It is filed as cell-based, Candida albicans / human. Particulars: 1-h exposure. On the procedure: Preparation of Yeast and Buccal Epithelial Cells
For preparation of yeast and buccal epithelial cells the methods of Taweechaisupapong et al., 2005 were used with some modification.
C. albicans standard strain (ATCC 10231) and clinical isolates were maintained on Sabouraud-dextrose agar and grown in the yeast phase in Sabouraud-dextrose broth for this study. The organisms were washed three times in normal saline (NSS) by centrifugation at 5000 rpm for 10 minutes and finally suspended in NSS to 4×10^7 cells/ml (MacFarlane standard 1).
Human buccal epithelial cells (HBEC) were collected from healthy individual subjects by gently scraping the cheek mucosa with a sterile wooden spatula. To minimize individual variations, HBEC from the twenty healthy individuals were pooled in 10 ml of sterile NSS (Sandin et al., 1987). The pooled HBEC suspension was washed three times in NSS by centrifugation at 5000 rpm for 10 minutes to eliminate debris and loosely attached micro-organisms. Washed epithelial cells were confirmed to have no attached yeast before the adherence test. The HBEC was then re-suspended in NSS to a concentration of 9×10^8 cells/ml (by haemocytometer) and used immediately for the adhesion assay. The cells were collected at the same time of day on each occasion to minimize any possible effect of diurnal variations of HBEC on yeast adherence.
Adhesion of C. albicans standard strain (ATCC 10231) and clinical isolates to HBEC was determined as follows: 0.2 ml of P. obliquum acetone leaf extract was serially two-fold diluted with normal saline (NSS) in tubes. Tubes containing 0.2 ml of amphotericin B and NSS served as positive and negative controls, respectively. 0.1 ml of HBEC and 0.1 ml of the yeast suspension prepared as described previously were added to each tube, mixed gently and incubated at 37° C. for 1 hour with gentle agitation. The suspension was then diluted in 1 ml of sterile NSS.
The cells were filtered through a 12 μm pore size polycarbonate filter (Millipore), and washed twice with 15 ml of sterile NSS to remove unattached fungi. Each filter was carefully removed with forceps and placed on a glass slide with the HBEC against the glass surface. After 30 s, the filter was gently removed; leaving the HBEC adhered to the glass slide. The slides were air-dried, fixed with methanol and stained with Gram's dye. The number of yeast cells adhering to 100 HBEC was determined by counting in a light microscopy (Nikon Trans microscope) at ×400 magnification and photographed with a Nixon digital camera DXM 1200 F.
The adhesion assay is a modification of a method previously described by Kimura and Pearsall (1978) and by Taweechaisupapong et al. (2005).
The numbers of fungi adhering per 100 human buccal epithelial cells were counted and the percentage reduction was determined as follows: crude plant extract concentration divided by the control (yeast+HBEC)×100 minus 100=% reduction.

The subject of series [5] is Candida albicans standard strain (ATCC 10231) and clinical isolates. Kind of series: Re-inoculation and re-incubation of MIC wells, cidal/static effects. As to conditions: for Growth after re-inoculation and re-incubation: 35° C. for 24 h. It is filed as cell-based.
Series [6] has as its system Microsporum canis. As to conditions: cited from earlier work.
Series [7] concerns Sporothrix schenckii. As to conditions: cited from earlier work.
Series [8] deals with monkey kidney (Vero) cells. Particulars: cited from earlier work.
Series [9] has as its system S. aureus, Salmonella typhi, Vibrio cholera, Escherichia coli, Shigella spp. Particulars: cited from earlier work.
In series [10] the test system is Enterococcus feacalis. Particulars: cited from earlier work.
In series [11] the test system is Candida albicans. Particulars: C. albicans; cited from earlier work.
The mark [12] stands for this setting: C. albicans 1051604, Amphotericin B 0.6 mg/ml.
[13] abbreviates: C. albicans ATCC 10231, Amphotericin B 0.11 mg/ml.
The mark [14] stands for this setting: C. albicans M0824, Amphotericin B 0.6 mg/ml.

≈ marks a conversion by molar mass, not a printed value. Where two headings read alike, the source gives them in different places.

Broadly, the CC50 is the concentration giving 50% cytotoxicity. Molecule `COc1ccc2cc3[n+](cc2c1OC)CCc1cc2c(cc1-3)OCO2` [Berberine, Berberine chloride, reference compound] came in with a CC50 at 5 days in [1] (mouse) of 9.04 µg/mL.

Usually MIC stands for the lowest concentration that inhibits growth of the organism. Usually MFC stands for the smallest concentration meeting the test's criterion for killing the fungus. Take `C[C@@H]1[C@H](O)[C@@H](C)/C=C/C=C/C=C/C=C/C=C/C=C/C=C/[C@H](O[C@@H]2O[C@H](C)[C@@H](O)[C@H](N)[C@@H]2O)C[C@@H]2O[C@](O)(C[C@@H](O)C[C@@H](O)[C@H](O)CC[C@@H](O)C[C@@H](O)CC(=O)O[C@H]1C)C[C@H](O)[C@H]2C(=O)O` [Amphotericin B, reference compound]: the MIC in series [2] (12 h incubation, C. albicans 1051255) was determined as 30 µg/mL (≈ 32.5 µM); in series [2] (12 h incubation, C. albicans 1051604), 60 µg/mL (≈ 64.9 µM); in [2] (12 h incubation, C. albicans 1051608), 110 µg/mL (≈ 119 µM); in series [2] (12 h incubation, C. albicans ATCC 10231), 110 µg/mL (≈ 119 µM); in [2] (12 h incubation, C. albicans M0824) it was 30 µg/mL (≈ 32.5 µM); in [2] (12 h incubation, C. albicans M0825), 30 µg/mL (≈ 32.5 µM). The MIC in series [2] (12 h incubation, C. albicans M0826) was determined as 60 µg/mL (≈ 64.9 µM); in [2] (24 h incubation, C. albicans 1051255), 230 µg/mL (≈ 249 µM); in series [2] (24 h incubation, C. albicans 1051604), 60 µg/mL (≈ 64.9 µM); in series [2] (24 h incubation, C. albicans 1051608), 110 µg/mL (≈ 119 µM); in series [2] (24 h incubation, C. albicans ATCC 10231) it was 110 µg/mL (≈ 119 µM); in series [2] (24 h incubation, C. albicans M0824), 110 µg/mL (≈ 119 µM). Further, the MIC in series [2] (24 h incubation, C. albicans M0825) was 60 µg/mL (≈ 64.9 µM); in [2] (24 h incubation, C. albicans M0826), 110 µg/mL (≈ 119 µM); in series [2] (C. albicans ATCC 10231, mean value), 110 µg/mL (≈ 119 µM); in series [2] (C. albicans clinical isolate 1051255, mean value), 30 µg/mL (≈ 32.5 µM); in [2] (C. albicans clinical isolate 1051604, mean value) it was 60 µg/mL (≈ 64.9 µM); in series [2] (C. albicans clinical isolate 1051608, mean value), 110 µg/mL (≈ 119 µM). Moreover, the MIC in [2] (C. albicans clinical isolate M0824, mean value) was found to be 30 µg/mL (≈ 32.5 µM); in series [2] (C. albicans clinical isolate M0825, mean value), 30 µg/mL (≈ 32.5 µM); in series [2] (C. albicans clinical isolate M0826, mean value) it was 60 µg/mL (≈ 64.9 µM). The Subcidal concentration amounted to 0.06 in series [3] (C. albicans 1051604), 0.11 in series [3] (C. albicans ATCC 10231) and 0.06 in [3] (C. albicans M0824). For the same molecule, the MFC in series [3] (C. albicans ATCC 10231) worked out at 110 µg/mL (≈ 119 µM); in [3] (C. albicans clinical isolate 1051255) it was 230 µg/mL (≈ 249 µM); in [3] (C. albicans clinical isolate 1051604) it was 60 µg/mL (≈ 64.9 µM); in series [3] (C. albicans clinical isolate 1051608), 110 µg/mL (≈ 119 µM); in series [3] (C. albicans clinical isolate M0824), 110 µg/mL (≈ 119 µM); in series [3] (C. albicans clinical isolate M0825) it was 60 µg/mL (≈ 64.9 µM). Also, the MFC in series [3] (C. albicans clinical isolate M0826) worked out at 110 µg/mL (≈ 119 µM). Besides, the entries for the “Number of yeast per 100 HBEC” value in [4] (setting [12]) and in [4] (setting [14]) were 10 and 12, respectively. Further, the “Reduction in adherence %” value in series [4] (setting [12]) was determined as 95.05%; in [4] (setting [13]), 38.42%; in series [4] (setting [14]), 93.41%. Also, the “Number of yeast cells per 100 HBEC” value in series [4] (setting [13]) came out at 109. The Cidal/static effects entry in series [5] (C. albicans 1051255) and in series [5] (C. albicans M0824) was “static” each time. The “Growth after re-inoculation and re-incubation” value in series [5] (C. albicans 1051255) and in series [5] (C. albicans M0824) was “yes” throughout.

As to `C=C(C)[C@@H]1CC[C@]2(C)CC[C@]3(C)[C@H](CC[C@@H]4[C@@]5(C)CC[C@H](O)C(C)(C)[C@@H]5CC[C@]43C)[C@@H]12` [Compound 1.1, Lupeol], the “MIC (Shai et al., 2008)” value in series [6] was 16 µg/mL (≈ 37.5 µM); in [7], 12 µg/mL (≈ 28.1 µM); in series [10] it was 63 µg/mL (≈ 148 µM); in series [11], 250 µg/mL (≈ 586 µM). In addition, in series [2] (Candida albicans, C. albicans ATCC 10231, mean value, read-out: MIC), the MIC stood at 4 µg/mL (≈ 9.37 µM). Further, the CC50 at 5 days in series [1] (mouse fibroblast cells, MTT, 5 days) amounted to 0.00148 µg/mL (≈ 0.00347 µM). Further, the “cytotoxic LC50 (Shai et al., 2008)” value in series [8] was 89.5 µg/mL. Besides, the “MIC (Mathabe et al., 2008)” value in series [9] was more than 200 µg/mL.
